Reference: a melting point compilation (Tetko et al.; mined from patent text by program, amines drawn as free bases though some values may be those of a salt)

Structure (SMILES)	melting point [°C]
COCc1cc(O)nc(C)n1	168 to 170
COc1cc(O)c(C(=O)C=Cc2ccc(C)o2)c(OC)c1	103
COc1c(Cl)ccc(-c2nc(OC)c3c(ncn3C)n2)c1F	191 to 192
C=CCOC(=O)NS(=O)(=O)CCc1cc(OCCCC)nn1Cc1ccc(Cl)cc1Cl	94 to 95
COc1ccsc1S(=O)(=O)Nc1nc2c(OC)cnc(OC)n2n1	227 to 228
CC1(C(=O)CC(=O)c2ccc(S(C)(=O)=O)c(Cl)c2Cl)CC1	143
COC(=O)[C@H](Cc1ccc(NC(=O)c2c(Cl)cccc2Cl)cc1)NC(=O)c1ccc(-n2nnnc2NCc2cccc(O)c2)cc1Cl	155 to 158
CCC1CN(O)CCN1O (stereo not given)	137
OCC=CCOc1nc(F)c(Cl)cc1Cl	30
COC(=O)c1ccc2[nH]c3cnc(C(=O)OC)c(C)c3c2c1	199 to 204
Cc1nnc(-c2ccc3occ(-c4ccc(C(=O)N5CCCC5)c(F)c4)c3c2)o1	195 to 196
Cc1cc(C)cc(Sc2c(CO)nc(C)n2C)c1	198 to 199
CC(C)(C)NC(=O)c1cc(F)ccc1N	77 to 78
CC(C)C1=CC2=CCC3C(C)(C(=O)N(C)C4CCCCC4)CCCC3(C)C2CC1 (stereo not given)	130 to 132
C=CCOC(=O)C1=C(C)NC(C)=C(C(=O)OCC=C)C1c1ccccc1Cl	98 to 99
COC(=O)c1oc(C(C)(C)C)cc1N	91 to 92
Cc1cccc(C)c1NC(=O)CSc1cc(C(C)(C)C)c(O)c(C(C)(C)C)c1	138
COc1cc2c(cc1Nc1ncc(Cl)c(Nc3ccccc3S(=O)(=O)N(C)C)n1)CCN(CCO)CC2	150 to 152
COC1CCCC(C2NC(=O)C2C(C)O[Si](C)(C)C(C)(C)C)C1O (stereo not given)	146 to 148
CSc1nnc(C(C)(C)C)[nH]1	191 to 194

Structure (SMILES)	melting point [°C]
CN=C(NC#N)Nc1ccc2c(c1)CCC1(C)CC(=O)NN=C21 (stereo not given)	269
COc1cc(OCc2ccccn2)ccc1/C=C/c1cc(/C=C/c2cc([N+](=O)[O-])c3cc[nH]c3c2)[nH]n1	125 to 131
CN(C)S(=O)(=O)N(C)c1ccc(C(O)(C(F)(F)F)C(F)(F)F)cc1	63 to 65
CC(=O)Nc1ccc(C(=O)O)cc1OCCO	208
CS(=O)c1ccc(Oc2ccc(Cl)c(Cl)c2)nc1C#N (stereo not given)	165 to 167
O=C(O)CCC(=O)c1cc2c(s1)CCc1ccccc1C2=O	167 to 168
O=C(CC(=O)C(F)(F)F)Nc1cc(-c2ccncc2)n[nH]1	364 to 366
COc1ccc(-c2nc3cnncc3[nH]2)c(OCC#N)c1	268
CCc1n[nH]c(CC)c1CCCCCOc1ccc(OC)cc1Cl	80 to 83
Nc1ccc2nc(-c3cccnc3)nn2c1	230
O=C1NC(=S)SC1=Cc1ccc2c(c1)OCO2	194 to 195
O=C1CCc2ccc(Oc3cccc(CN4CCN(c5cccc(Cl)c5Cl)CC4)c3)cc2N1	182 to 183
COC(=O)/C=C/n1cnc2c(C)cc(C)cc2c1=O	139 to 141
CCCCCC1=CCC(c2cc(F)c(C#N)c(F)c2)C=C1 (stereo not given)	59
COC(=O)c1c([N+](=O)[O-])c(OC)c2c(=O)[nH]c(C)nc2c1OC	225
COC(C)(CC(=O)NC12CC3CC(CC(C3)C1)C2)OC	140
CC1(C)Oc2ccc(-c3c(O)c(=O)c3=O)cc2[C@@H](N2Cc3ccccc3C2=O)[C@@H]1O (relative stereo)	> 250
CC1(C)CCc2c(ccc3c2C(=O)C(Cl)=CC3=O)O1	140 to 142
Cc1ccc(OCCCN2CCN(c3nc(N)nc(-c4cc(Cl)ccc4Cl)n3)CC2)cc1	148 to 150
CC(=O)NCc1nc2c(N)nc(C)c(C)c2n1CC(C)C	162 to 164

Second part, the compound after the results:

melting point [°C]	Structure (SMILES)
149 to 151	FC(F)(F)c1ccccc1-c1ccnc2ncnn12
75 to 80	CCCCCCN(CCCCCC)c1c(N[C@@H](Cc2cn(Cc3ccccc3)cn2)C(=O)O)c(=O)c1=O
126 to 127	CSc1cc(C)nc(SC)c1NC(=O)CCCCCCCCSc1nc2ccccc2s1
209 to 210	CSc1ccc(-c2coc3ncc(-c4nnc(C)o4)cc23)cc1
238 to 242	O=C(O)CN1C(=O)C(=Cc2ccccc2Cl)SC1=S
247 to 248	CC(C)(C(=O)NC(Nc1c(Nc2cccnc2)c(=O)c1=O)C(C)(C)C)c1ccccc1 (stereo not given)
74 to 75	COC(=O)Cc1cn(-c2ccccc2)nc1OCc1ccccc1
161	c1ccc(C(c2ccccc2)(c2cncnc2)n2ccnc2)cc1
129 to 130	CCOC(=O)c1ccc(-c2nc(COc3ccc(COc4nn(-c5ccccc5)cc4/C=C/P(=O)(OCC)OCC)cc3OC)c(C)o2)o1
150 to 151	CCOC(=O)C(=O)Nc1ccc2ccccc2c1NC(=O)C(=O)OCC
213 to 214	Cc1ccc(C(=O)NCCCCN2CCN(C(c3ccccc3)c3ccccc3)CC2)c(O)n1
65.4 to 66.3	COc1ccc2ccc(-c3ccccc3)cc2c1
266 to 267	COc1ccc(-c2oc3c(C(=O)O)cccc3c(=O)c2C)cc1
118 to 120	C/C=C(\C)CNc1cccc(-c2ccnc3c(C(=O)c4cccs4)cnn23)c1
140 to 143	Nc1ncnc2c1c(-c1ccc3cn[nH]c3c1)nn2Cc1oc2ccccc2c(=O)c1-c1ccccc1
149	C=CCOc1ccc(-c2ccc(C(=O)OC)cc2)cc1
220	O=c1[nH]c2c(n1-c1ccccc1)CCCC2
128 to 129	Cc1ccnc(S(=O)(=O)c2ccccc2)c1

melting point [°C]	Structure (SMILES)
> 250	CNCC1Cc2cc(-c3ccccc3)cc(-c3ccc(F)cc3)c2O1 (stereo not given)
85 to 86	CC(C)(C)NCC(O)COC(=O)c1ccc(OCc2ccccc2)c(OCc2ccccc2)c1 (stereo not given)
143 to 145	COc1ccc(C(Sc2c(N)ccc3ccccc23)C(O)C(=O)O)cc1 (stereo not given)
105 to 107	CS(=O)(=O)c1ncc(F)c(NCc2ccccc2F)n1
140 to 142	O=C(O)C(O)=CC(=O)c1cn(Cc2ccccc2)cc(Cc2ccccc2)c1=O
266 to 267	Oc1cc(-c2ccccc2)ncn1
135	N#CCCn1nc(-c2ccc(OCc3ccccc3)cc2)sc1=O
110	COc1cccc2c1Oc1ccc(C(=O)OC(C)C)cc1NC2
163 to 165	O=C(NCC1(c2ccccc2)CCCCC1)Nc1ccc(F)cc1F
272 to 274	O=C(Nc1ccccn1)c1cnc2c(c1O)CN(C(=O)OCc1ccccc1)CC2
151 to 153	Cc1c(NC(=O)c2ccc(-c3ccccc3)cc2F)ccc2cc(CN3CCCCCC3)cnc12
77.5 to 80	O=C1CCC[C@@H](c2ccc(Cl)cc2)N1c1ccccc1
292	O=C(O)c1cnc(-c2nnn[nH]2)c2ccccc12
131 to 132	O=C(Nc1ccc(Br)cc1)C(=O)N1CCC(Cc2ccccc2)CC1
166 to 168	Cc1cnc(NC(=O)C(c2ccccc2)c2ccccc2)o1
194 to 197	Oc1nc(-c2ccccc2)cs1
87 to 92	O=C(Cc1c(F)c(F)nc(F)c1Cl)OCc1ccccc1
